Assay results reported in patent publication US8445408B2, “Pyrimidine derivatives and their use for controlling undesired plant growth” (Bayer Cropscience AG, priority 2008, dated 2013).

What was measured:
Amaranthus retroflexus [1] = assay: Post-emergence herbicidal effect; format: in vivo; conditions: Dosage 320 (0.32 kg active substance per hectare); treated in one-leaf stage; visual scoring after ca. 3 weeks vs untreated controls; 100% = plants have died
Method: (§1) [table] 2. Post-emergence herbicidal effect and crop plant compatibility Seeds of monocotyledonous or dicotyledonous weed plants or crop plants are planted in wood-fiber pots in sandy loam, covered with earth and grown in a greenhouse under good growth conditions. 2 to 3 weeks after sowing, the test plants are treated in the one-leaf stage. The compounds according to the invention, formulated in the form of wettable powders (WP) or as emulsion concentrates (EC), are then sprayed onto the green plant parts as aqueous suspension or emulsion at a water application rate of 600 to 800 I/ha (converted) with the addition of 0.2% of wetting agent. After ca. 3 weeks' standing time of the test plants in the greenhouse under optimum growth conditions, the effect of the preparations is scored visually in comparison with untreated controls (herbicidal effect in percent (%): 100% effect=plants have died, 0% effect=as control plants).

Pharbitis purpurea = assay: Post-emergence herbicidal effect; format: in vivo; conditions: Dosage 320 (0.32 kg active substance per hectare); treated in one-leaf stage; visual scoring after ca. 3 weeks vs untreated controls; 100% = plants have died
Method: as §1

Viola tricolor [2] = assay: Post-emergence herbicidal effect; format: in vivo; conditions: Dosage 320 (0.32 kg active substance per hectare); treated in one-leaf stage; visual scoring after ca. 3 weeks vs untreated controls; 100% = plants have died
Method: as §1

Amaranthus retroflexus [3] = assay: Pre-emergence herbicidal effect; format: in vivo; conditions: Dosage 320 (0.32 kg active substance per hectare); visual scoring after 3 weeks vs untreated controls; 100% = plants have died
Source text: (§2) Seeds of monocotyledonous or dicotyledonous weed plants or crop plants are planted in wood-fiber pots in sandy loam and covered with earth. The compounds according to the invention, formulated in the form of wettable powders (WP) or as emulsion concentrates (EC), are then applied as aqueous suspension or emulsion at a water application rate of 600 to 800 I/ha (converted) with the addition of 0.2% of wetting agent to the surface of the covering earth. Following the treatment, the pots are placed in a greenhouse and kept under good growth conditions for the test plants. The visual scoring of the damage on the test plants is carried out after an experiment time of 3 weeks in comparison with untreated controls (herbicidal effect in percent (%): 100% effect=plants have died, 0% effect=as control plants). [table]

Setaria viridis [4] = assay: Pre-emergence herbicidal effect; format: in vivo; conditions: Dosage 320 (0.32 kg active substance per hectare); visual scoring after 3 weeks vs untreated controls; 100% = plants have died
Source text: as §2

Polygonum convolvulus [5] = assay: Pre-emergence herbicidal effect; format: in vivo; conditions: Dosage 320 (0.32 kg active substance per hectare); visual scoring after 3 weeks vs untreated controls; 100% = plants have died
Source text: as §2

Lolium multiflorum [6] = assay: Pre-emergence herbicidal effect; format: in vivo; conditions: Dosage 320 (0.32 kg active substance per hectare); visual scoring after 3 weeks vs untreated controls; 100% = plants have died
Source text: as §2

Alopecurus myosuroides = assay: Pre-emergence herbicidal effect; format: in vivo; conditions: Dosage 320 (0.32 kg active substance per hectare); visual scoring after 3 weeks vs untreated controls; 100% = plants have died
Source text: as §2

Viola tricolor [7] = assay: Pre-emergence herbicidal effect; format: in vivo; conditions: Dosage 320 (0.32 kg active substance per hectare); visual scoring after 3 weeks vs untreated controls; 100% = plants have died
Source text: as §2

Echinochloa crus-galli [8] = assay: Pre-emergence herbicidal effect; format: in vivo; conditions: Dosage 320 (0.32 kg active substance per hectare); visual scoring after 3 weeks vs untreated controls; 100% = plants have died
Source text: as §2

Veronica persica [9] = assay: Pre-emergence herbicidal effect; format: in vivo; conditions: Dosage 320 (0.32 kg active substance per hectare); visual scoring after 3 weeks vs untreated controls; 100% = plants have died
Source text: as §2

Setaria viridis [10] = assay: Post-emergence herbicidal effect; format: in vivo; conditions: Dosage 320 (0.32 kg active substance per hectare); treated in one-leaf stage; visual scoring after ca. 3 weeks vs untreated controls; 100% = plants have died
Method: as §1

Polygonum convolvulus [11] = assay: Post-emergence herbicidal effect; format: in vivo; conditions: Dosage 320 (0.32 kg active substance per hectare); treated in one-leaf stage; visual scoring after ca. 3 weeks vs untreated controls; 100% = plants have died
Method: as §1

Abutilon theophrasti = assay: Post-emergence herbicidal effect; format: in vivo; conditions: Dosage 320 (0.32 kg active substance per hectare); treated in one-leaf stage; visual scoring after ca. 3 weeks vs untreated controls; 100% = plants have died
Method: as §1

Echinochloa crus-galli [12] = assay: Post-emergence herbicidal effect; format: in vivo; conditions: Dosage 320 (0.32 kg active substance per hectare); treated in one-leaf stage; visual scoring after ca. 3 weeks vs untreated controls; 100% = plants have died
Method: as §1

Veronica persica [13] = assay: Post-emergence herbicidal effect; format: in vivo; conditions: Dosage 320 (0.32 kg active substance per hectare); treated in one-leaf stage; visual scoring after ca. 3 weeks vs untreated controls; 100% = plants have died
Method: as §1

Matricaria inodora [14] = assay: Pre-emergence herbicidal effect; format: in vivo; conditions: Dosage 320 (0.32 kg active substance per hectare); visual scoring after 3 weeks vs untreated controls; 100% = plants have died
Source text: as §2

Stellaria media [15] = assay: Pre-emergence herbicidal effect; format: in vivo; conditions: Dosage 320 (0.32 kg active substance per hectare); visual scoring after 3 weeks vs untreated controls; 100% = plants have died
Source text: as §2

[16] = logp (HCOOH), chemicophysical data; conditions: HCOOH (formic acid)
Lolium multiflorum [17] = assay: Post-emergence herbicidal effect; format: in vivo; conditions: Dosage 320 (0.32 kg active substance per hectare); treated in one-leaf stage; visual scoring after ca. 3 weeks vs untreated controls; 100% = plants have died
Method: as §1

Stellaria media [18] = assay: Post-emergence herbicidal effect; format: in vivo; conditions: Dosage 320 (0.32 kg active substance per hectare); treated in one-leaf stage; visual scoring after ca. 3 weeks vs untreated controls; 100% = plants have died
Method: as §1

Chenopodium album = assay: Post-emergence herbicidal effect; format: in vivo; conditions: Dosage 320 (0.32 kg active substance per hectare); treated in one-leaf stage; visual scoring after ca. 3 weeks vs untreated controls; 100% = plants have died
Method: as §1

Matricaria inodora [19] = assay: Post-emergence herbicidal effect; format: in vivo; conditions: Dosage 320 (0.32 kg active substance per hectare); treated in one-leaf stage; visual scoring after ca. 3 weeks vs untreated controls; 100% = plants have died
Method: as §1

Cyperus esculentus = assay: Pre-emergence herbicidal effect; format: in vivo; conditions: Dosage 320 (0.32 kg active substance per hectare); visual scoring after 3 weeks vs untreated controls; 100% = plants have died
Source text: as §2

| SMILES | Post-emergence herbicidal effect AMARE (Amaranthus retroflexus [1]) [%] | Post-emergence herbicidal effect PHBPU (Pharbitis purpurea) [%] | Post-emergence herbicidal effect VIOTR (Viola tricolor [2]) [%] | Pre-emergence herbicidal effect AMARE (Amaranthus retroflexus [3]) [%] | Pre-emergence herbicidal effect SETVI (Setaria viridis [4]) [%] | Pre-emergence herbicidal effect POLCO (Polygonum convolvulus [5]) [%] | Pre-emergence herbicidal effect LOLMU (Lolium multiflorum [6]) [%] | Pre-emergence herbicidal effect ALOMY (Alopecurus myosuroides) [%] | Pre-emergence herbicidal effect VIOTR (Viola tricolor [7]) [%] | Pre-emergence herbicidal effect ECHCG (Echinochloa crus-galli [8]) [%] | Pre-emergence herbicidal effect VERPE (Veronica persica [9]) [%] | Post-emergence herbicidal effect ABUTH (Abutilon theophrasti) [%] | Post-emergence herbicidal effect ECHCG (Echinochloa crus-galli [12]) [%] | Post-emergence herbicidal effect VERPE (Veronica persica [13]) [%] | further results |
| --- | --- | --- | --- | --- | --- | --- | --- | --- | --- | --- | --- | --- | --- | --- | --- |
| Nc1nc(N[C@@H]2CCCc3ccccc32)cc(C(F)F)n1 [Example 1.35] | 90 | 80 | 80 | 100 | 90 | 100 | 100 | 80 | 100 | 80 | 100 |  |  |  |  |
| Cc1ccc2c(c1)[C@H](Nc1cc(C(F)(F)F)nc(N)n1)[C@@H](C)C2 [Example 1.27, N4-[(1R,2S)-2,6-dimethyl-2,3-dihydro-1H-inden-1-yl]-6-(trifluoromethyl)pyrimidine-2,4-diamine] | 100 | 85 | 85 | 100 | 100 | 100 | 80 |  | 100 | 100 | 100 | 90 | 85 | 85 | Post-emergence herbicidal effect SETVI (Setaria viridis [10]): 80%; Post-emergence herbicidal effect POLCO (Polygonum convolvulus [11]): 80%; Pre-emergence herbicidal effect MATIN (Matricaria inodora [14]): 100%; Pre-emergence herbicidal effect STEME (Stellaria media [15]): 100%; chromatographic logP [16]: 2.77 |
| Cc1ccc2c(c1)[C@H](Nc1cc(C(F)F)nc(N)n1)[C@@H](C)C2 [Example 1.30] | 95 | 90 | 85 | 100 | 100 | 100 | 100 | 100 | 100 | 100 | 100 | 85 | 87 | 90 | Post-emergence herbicidal effect SETVI (Setaria viridis [10]): 80%; Post-emergence herbicidal effect LOLMU (Lolium multiflorum [17]): 80%; Post-emergence herbicidal effect STEME (Stellaria media [18]): 80%; Pre-emergence herbicidal effect MATIN (Matricaria inodora [14]): 100%; Pre-emergence herbicidal effect STEME (Stellaria media [15]): 100% |
| Cc1cc(C)c2c(c1)C(Nc1cc(C(F)(F)F)nc(N)n1)CCC2 (racemic) [Example 1.17] |  |  |  | 100 |  |  |  |  |  |  | 100 |  |  |  |  |
| Nc1nc(NC2CCc3ccccc32)cc(C(F)(F)F)n1 (racemic) [Example 1.18] |  |  |  | 100 |  | 100 |  |  |  |  | 100 |  |  |  |  |
| Nc1nc(N[C@@H]2CCc3ccccc32)cc(C(F)F)n1 [Example 1.36] | 100 | 80 | 90 |  |  |  |  |  |  |  |  | 80 | 90 | 90 | Post-emergence herbicidal effect LOLMU (Lolium multiflorum [17]): 90% |
| Cc1ccc2c(c1)C(Nc1cc(C(F)(F)F)nc(N)n1)C(C)C2 (racemic) [Example 1.31] | 100 |  |  |  | 100 | 100 | 80 | 100 |  |  |  | 90 |  | 90 | Post-emergence herbicidal effect CHEAL (Chenopodium album): 80%; Post-emergence herbicidal effect MATIN (Matricaria inodora [19]): 90%; Pre-emergence herbicidal effect CYPES (Cyperus esculentus): 100% |
| Nc1nc(Cl)cc(N[C@@H]2CCc3ccccc32)n1 [Example 1.44] |  |  |  | 100 |  | 100 |  |  | 100 |  | 100 |  |  |  |  |
| Cc1ccc2c(c1)[C@H](Nc1cc(Cl)nc(N)n1)[C@@H](C)C2 [Example 1.42] | 100 | 100 | 90 | 100 | 100 | 100 |  | 100 | 100 | 100 | 100 |  | 90 | 80 | Post-emergence herbicidal effect SETVI (Setaria viridis [10]): 80%; Post-emergence herbicidal effect POLCO (Polygonum convolvulus [11]): 80%; Pre-emergence herbicidal effect MATIN (Matricaria inodora [14]): 100%; Pre-emergence herbicidal effect STEME (Stellaria media [15]): 100% |
| N#Cc1c(N[C@@H]2CCCc3ccccc32)nc(N)nc1-c1ccccc1 [Example 1.53, 2-Amino-4-phenyl-6-[(1R)-1,2,3,4-tetrahydronaphthalen-1-ylamino]pyrimidine-5-carbonitrile] |  |  |  |  |  |  |  |  |  |  |  |  |  |  | chromatographic logP [16]: 2.87 |
| Nc1ncc(C(F)(F)F)c(N[C@@H]2CCCc3ccccc32)n1 [Example 1.60, N4-[(1R)-1,2,3,4-tetrahydronaphthalen-1-yl]-5-(trifluoromethyl)pyrimidine-2,4-diamine] |  |  |  |  |  |  |  |  |  |  |  |  |  |  | melting point: 120 to 121 °C |
